In US11878975B2, “Substituted indole compounds useful as TLR inhibitors” (BRISTOL-MYERS SQUIBB COMPANY, priority 2017, dated 2024):

Legend:
Type in all cases: cell-based
human TLR7 = molecular target: T1, human TLR7 (Homo sapiens, UniProt Q9NYK1); test: TLR7 inhibition reporter assay (HEK-Blue cells, SEAP reporter, gardiquimod stimulation); details: HEK-Blue cells overexpressing human TLR7, SEAP reporter, gardiquimod 7.5 μM
T1 construct: host or cells: HEK-Blue cells
T1 sequence (Q9NYK1 27-1049): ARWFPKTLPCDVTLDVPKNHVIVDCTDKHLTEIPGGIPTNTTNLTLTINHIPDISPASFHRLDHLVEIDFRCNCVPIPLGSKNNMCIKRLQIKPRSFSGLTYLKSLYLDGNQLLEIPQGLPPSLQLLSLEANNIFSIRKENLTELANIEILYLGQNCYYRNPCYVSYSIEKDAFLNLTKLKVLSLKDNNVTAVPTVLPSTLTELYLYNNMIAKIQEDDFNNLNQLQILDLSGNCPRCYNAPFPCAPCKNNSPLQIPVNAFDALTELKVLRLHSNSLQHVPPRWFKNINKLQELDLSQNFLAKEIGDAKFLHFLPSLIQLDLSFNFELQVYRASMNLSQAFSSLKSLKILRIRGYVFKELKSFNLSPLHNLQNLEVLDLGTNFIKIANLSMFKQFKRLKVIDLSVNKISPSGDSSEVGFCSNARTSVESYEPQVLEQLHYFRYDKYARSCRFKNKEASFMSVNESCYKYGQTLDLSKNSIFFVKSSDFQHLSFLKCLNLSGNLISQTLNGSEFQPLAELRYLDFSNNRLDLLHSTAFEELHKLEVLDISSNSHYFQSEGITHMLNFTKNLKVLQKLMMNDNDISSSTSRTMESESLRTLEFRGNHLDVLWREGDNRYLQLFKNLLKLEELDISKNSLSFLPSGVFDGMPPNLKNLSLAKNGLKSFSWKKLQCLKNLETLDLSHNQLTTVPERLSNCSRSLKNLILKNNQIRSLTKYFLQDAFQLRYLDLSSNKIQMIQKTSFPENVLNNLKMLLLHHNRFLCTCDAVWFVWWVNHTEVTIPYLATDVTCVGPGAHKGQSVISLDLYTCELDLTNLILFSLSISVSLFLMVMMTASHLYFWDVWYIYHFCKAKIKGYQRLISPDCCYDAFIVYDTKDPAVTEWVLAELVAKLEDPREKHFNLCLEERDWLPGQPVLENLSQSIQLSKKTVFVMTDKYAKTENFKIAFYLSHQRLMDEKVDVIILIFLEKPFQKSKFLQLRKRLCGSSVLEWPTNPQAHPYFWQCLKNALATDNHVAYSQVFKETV
Protocol: (§1) TLR7/8/9 Inhibition Reporter Assays
(§2) HEK-Blue™-cells (Invivogen) overexpressing human TLR7, TLR8 or TLR9 receptors were used for screening inhibitors of these receptors using an inducible SEAP (secreted embryonic alkaline phosphatase) reporter gene under the control of the IFN-β minimal promoter fused to five NF-κB and AP-1-binding sites. Briefly, cells are seeded into Greiner 384 well plates (15000 cells per well for TLR7, 20,000 for TLR8 and 25,000 for TLR9) and then treated with test compounds in DMSO to yield a final dose response concentration range of 0.05 nM-50 μM. After a 30 minute compound pre-treatment al room temperature, the cells are then stimulated with a TLR7 ligand (gardiquimod at a final concentration of 7.5 μM), TLR8 ligand (R848 at a final concentration of 15.9 μM) or TLR9 ligand (ODN2006 at a final concentration of 5 nM) to activate NF-κB and AP-1 which induce the production of SEAP. After a 22 hour incubation at 37° C., 5% CO2, SEAP levels are determined with the addition of HEK-Blue™ Detection reagent (Invivogen), a cell culture medium that allows for detection of SEAP, according to manufacturer's specifications. The percent inhibition is determined as the % reduction in the HEK-Blue signal present in wells treated with agonist plus DMSO alone compared to wells treated with a known inhibitor.

human TLR8 = molecular target: T2, human TLR8 (Homo sapiens, UniProt Q9NR97); test: TLR8 inhibition reporter assay (HEK-Blue cells, SEAP reporter, R848 stimulation); details: HEK-Blue cells overexpressing human TLR8, SEAP reporter, R848 15.9 μM
T2 construct: host or cells: HEK-Blue cells
T2 sequence (Q9NR97 27-1041): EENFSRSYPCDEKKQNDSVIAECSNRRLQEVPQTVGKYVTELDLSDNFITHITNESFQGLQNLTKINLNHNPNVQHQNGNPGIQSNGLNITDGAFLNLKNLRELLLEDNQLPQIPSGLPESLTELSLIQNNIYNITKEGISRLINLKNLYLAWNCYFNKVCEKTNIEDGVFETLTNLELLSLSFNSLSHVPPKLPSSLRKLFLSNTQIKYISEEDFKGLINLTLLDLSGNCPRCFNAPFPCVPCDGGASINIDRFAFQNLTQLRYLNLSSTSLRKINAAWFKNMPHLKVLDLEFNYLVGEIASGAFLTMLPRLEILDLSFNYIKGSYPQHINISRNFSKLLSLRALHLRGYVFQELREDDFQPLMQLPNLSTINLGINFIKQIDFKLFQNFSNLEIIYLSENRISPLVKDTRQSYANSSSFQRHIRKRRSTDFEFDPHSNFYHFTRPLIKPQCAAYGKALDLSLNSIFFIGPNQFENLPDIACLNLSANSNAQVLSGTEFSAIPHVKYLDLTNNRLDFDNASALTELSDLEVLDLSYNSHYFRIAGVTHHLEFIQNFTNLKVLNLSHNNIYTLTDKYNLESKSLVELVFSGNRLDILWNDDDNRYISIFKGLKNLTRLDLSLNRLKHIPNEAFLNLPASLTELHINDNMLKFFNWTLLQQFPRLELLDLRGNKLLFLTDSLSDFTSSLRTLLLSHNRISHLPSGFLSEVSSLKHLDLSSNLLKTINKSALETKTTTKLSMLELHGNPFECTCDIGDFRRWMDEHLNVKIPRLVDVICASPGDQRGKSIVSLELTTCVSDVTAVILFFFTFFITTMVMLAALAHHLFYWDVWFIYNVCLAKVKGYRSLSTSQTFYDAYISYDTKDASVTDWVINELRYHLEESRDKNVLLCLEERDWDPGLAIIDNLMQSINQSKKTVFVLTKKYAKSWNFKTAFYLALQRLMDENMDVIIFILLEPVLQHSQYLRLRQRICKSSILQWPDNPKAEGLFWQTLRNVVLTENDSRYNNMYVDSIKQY
Protocol: as §1, §2

human TLR9 = molecular target: T3, human TLR9 (Homo sapiens, UniProt Q9NR96); test: TLR9 inhibition reporter assay (HEK-Blue cells, SEAP reporter, ODN2006 stimulation); details: HEK-Blue cells overexpressing human TLR9, SEAP reporter, ODN2006 5 nM
T3 construct: host or cells: HEK-Blue cells
T3 sequence (Q9NR96 26-1032): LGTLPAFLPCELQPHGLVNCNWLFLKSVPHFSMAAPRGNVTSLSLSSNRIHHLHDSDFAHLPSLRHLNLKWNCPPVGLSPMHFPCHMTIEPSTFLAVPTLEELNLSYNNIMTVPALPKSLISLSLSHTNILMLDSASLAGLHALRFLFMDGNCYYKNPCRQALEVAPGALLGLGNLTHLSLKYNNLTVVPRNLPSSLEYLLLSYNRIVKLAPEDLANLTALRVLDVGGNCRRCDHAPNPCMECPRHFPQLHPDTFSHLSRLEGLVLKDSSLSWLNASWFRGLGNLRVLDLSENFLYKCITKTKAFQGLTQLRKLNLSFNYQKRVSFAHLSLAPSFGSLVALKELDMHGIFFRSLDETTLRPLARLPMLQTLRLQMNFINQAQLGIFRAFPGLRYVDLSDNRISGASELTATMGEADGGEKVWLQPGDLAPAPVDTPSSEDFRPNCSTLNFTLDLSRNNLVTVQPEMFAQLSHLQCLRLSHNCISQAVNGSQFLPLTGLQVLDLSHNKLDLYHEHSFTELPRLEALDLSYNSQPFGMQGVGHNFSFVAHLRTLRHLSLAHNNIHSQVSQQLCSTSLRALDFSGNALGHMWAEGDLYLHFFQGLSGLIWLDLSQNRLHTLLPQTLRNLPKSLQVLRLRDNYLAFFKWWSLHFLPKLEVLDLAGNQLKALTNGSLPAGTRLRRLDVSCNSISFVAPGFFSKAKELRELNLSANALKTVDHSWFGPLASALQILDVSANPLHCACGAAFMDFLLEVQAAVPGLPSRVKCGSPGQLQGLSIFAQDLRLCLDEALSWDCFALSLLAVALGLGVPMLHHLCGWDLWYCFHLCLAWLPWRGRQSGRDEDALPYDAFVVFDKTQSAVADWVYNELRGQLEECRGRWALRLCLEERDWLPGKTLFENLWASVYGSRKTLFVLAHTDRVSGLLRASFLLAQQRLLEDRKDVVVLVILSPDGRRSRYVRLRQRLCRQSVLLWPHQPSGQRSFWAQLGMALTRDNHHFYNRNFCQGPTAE
Protocol: as §1, §2

Compound: Cc1c(-c2[nH]c3ccc(C4CN(C5COC5)C4)cc3c2C(C)C)cn2cnnc2c1C [Example 540]
- IC50 (human TLR7): 19 nM
- IC50 (human TLR8): 36 nM
- IC50 (human TLR9): 18600 nM

Compound: Cc1cc(-c2[nH]c3ccc(C4CN5CCC4CC5)cc3c2C(C)C)cc(C)n1 (single isomer, unassigned) [Example 363, 3-(2-(2,6-dimethylpyridin-4-yl)-3-isopropyl-1H-indol-5-yl)quinuclidine]
- IC50 (human TLR7): 2 nM
- IC50 (human TLR8): 5.3 nM
- IC50 (human TLR9): 438 nM

Compound: Cc1cc(-c2[nH]c3ccc(C4CN(CC(=O)N(C)C)CCO4)cc3c2C(C)C)cn2ncnc12 (single isomer, unassigned) [Example 316]
- IC50 (human TLR7): 9 nM
- IC50 (human TLR8): 55 nM
- IC50 (human TLR9): > 50000 nM

Compound: Cc1c(-c2[nH]c3ccc(C4CCC(N(C)C5COC5)CC4)cc3c2C(C)C)cn2cnnc2c1C (stereo not drawn) [Example 526]
- IC50 (human TLR7): 6 nM
- IC50 (human TLR8): 34 nM
- IC50 (human TLR9): 6970 nM

Compound: CN[C@@H](C)C(=O)N1CCCC(c2ccc3[nH]c(-c4cc(C)nc(C)c4)c(C(C)C)c3c2)C1 (stereo partly drawn) [Example 216]
- IC50 (human TLR7): 7 nM
- IC50 (human TLR8): 18 nM
- IC50 (human TLR9): 303 nM

Compound: Cc1c(-c2[nH]c3ccc(C4CN(CC(N)=O)C4)cc3c2C(C)C)cn2ncnc2c1C [Example 548]
- IC50 (human TLR7): 4 nM
- IC50 (human TLR8): 5.1 nM
- IC50 (human TLR9): 8050 nM

Compound: CCN(C)C1CCC(c2ccc3[nH]c(-c4cc(C)c5ncnn5c4)c(C(C)C)c3c2)CC1 (stereo not drawn) [Example 62]
- IC50 (human TLR7): 0.98 nM
- IC50 (human TLR8): 6.3 nM
- IC50 (human TLR9): 1830 nM

Compound: CNC(=O)CNC1CCC(c2ccc3[nH]c(-c4cc(OC)c5ncnn5c4)c(C(C)C)c3c2)CC1 (stereo not drawn) [Example 167]
- IC50 (human TLR7): 0.22 nM
- IC50 (human TLR8): 0.62 nM
- IC50 (human TLR9): 1300 nM

Compound: Cc1cc(-c2[nH]c3ccc(C4CN(CC(C)(C)O)CCO4)cc3c2C(C)C)cn2ncnc12 (single isomer, unassigned) [Example 356]
- IC50 (human TLR7): 6 nM
- IC50 (human TLR8): 4.6 nM
- IC50 (human TLR9): 6990 nM

Compound: COc1cc(-c2[nH]c3ccc(C4CCC(N(C)C(=O)CN(C)C)CC4)cc3c2C(C)C)cn2ncnc12 (stereo not drawn) [Example 147, 2-(dimethylamino)-N-(4-(3-isopropyl-2-(8-methoxy-[1,2,4]triazolo[1,5-a]pyridin-6-yl)-1H-indol-5-yl)cyclohexyl)-N-methylacetamide]
- IC50 (human TLR7): 0.43 nM
- IC50 (human TLR8): 5.1 nM
- IC50 (human TLR9): 1490 nM

Compound: Cc1c(-c2[nH]c3ccc(C4CC(N)C4)cc3c2C(C)C)cn2ncnc2c1C (stereo not drawn) [Example 542]
- IC50 (human TLR7): 3 nM
- IC50 (human TLR8): 1.2 nM
- IC50 (human TLR9): 5100 nM

Compound: Cc1c(-c2[nH]c3ccc(C4CN(CCS(C)(=O)=O)CCO4)cc3c2C(C)C)cn2ncnc2c1C (stereo not drawn) [Example 346]
- IC50 (human TLR7): 25 nM
- IC50 (human TLR8): 24 nM
- IC50 (human TLR9): > 50000 nM

Compound: COc1cc(-c2[nH]c3ccc(C4CCC(N5CCC5)CC4)cc3c2C(C)C)cn2ncnc12 (stereo not drawn) [Example 77]
- IC50 (human TLR7): 1 nM
- IC50 (human TLR8): 3.1 nM
- IC50 (human TLR9): 1920 nM

Compound: CCN(C)C1CCC(c2ccc3[nH]c(-c4cc(OC)c5ncnn5c4)c(C(C)C)c3c2)CC1 (single isomer, unassigned) [Example 66]
- IC50 (human TLR7): 0.85 nM
- IC50 (human TLR8): 4.4 nM
- IC50 (human TLR9): 1170 nM

Compound: COc1cc(-c2[nH]c3ccc(C4CCC(N5CC6(COC6)C5)CC4)cc3c2C(C)C)cn2ncnc12 (stereo not drawn) [Example 80]
- IC50 (human TLR7): 0.85 nM
- IC50 (human TLR8): 2.1 nM
- IC50 (human TLR9): 1440 nM

Compound: COc1cc(-c2[nH]c3ccc(CC4CN(CC#N)C4)cc3c2C(C)C)cn2ncnc12 [Example 432]
- IC50 (human TLR7): 8 nM
- IC50 (human TLR8): 49 nM
- IC50 (human TLR9): 5350 nM

Compound: Cc1cc(-c2[nH]c3ccc([C@@H]4C[C@H]4C(=O)NC4CC5CCN4CC5)cc3c2C(C)C)ccn1 (stereo partly drawn) [Example 461]
- IC50 (human TLR7): 86 nM
- IC50 (human TLR8): 30 nM
- IC50 (human TLR9): 467 nM

Compound: Cc1cc(-c2[nH]c3ccc(C4CN(CC(=O)N(C)C)C(C)(C)CO4)cc3c2C(C)C)cn2ncnc12 (single isomer, unassigned) [Example 379, 2-(2-(3-isopropyl-2-(8-methyl-[1,2,4]triazolo[1,5-a]pyridin-6-yl)-1H-indol-5-yl)-5,5-dimethylmorpholino)-N,N-dimethylacetamide]
- IC50 (human TLR7): 12 nM
- IC50 (human TLR8): 70 nM
- IC50 (human TLR9): 5370 nM

Compound: Cc1cc(-c2[nH]c3ccc(C4CN5CCC4CC5)cc3c2C(C)C)cn2ncnc12 (stereo not drawn) [Example 365]
- IC50 (human TLR7): 0.22 nM
- IC50 (human TLR8): 1.6 nM
- IC50 (human TLR9): 745 nM

Compound: Cc1c(-c2[nH]c3ccc(C4CC5CN(C6COC6)CC5C4)cc3c2C(C)C)cn2cnnc2c1C (stereo not drawn) [Example 522]
- IC50 (human TLR7): 9 nM
- IC50 (human TLR8): 85 nM
- IC50 (human TLR9): 12700 nM
